{"source": "paper PMC10913730", "about": "“Antimicrobial activity of a natural compound and analogs against multi-drug-resistant Gram-positive pathogens” (Microbiology Spectrum, 2024)", "key": {"[1]": {"experiment": "Aqueous solubility of compounds reconstituted at 10 mg/mL in water", "conditions": "10 mg/mL in distilled deionized water"}, "[2]": {"test_system": "erythrocytes (sheep blood)", "experiment": "Hemolytic activity against sheep erythrocytes"}, "[3]": {"test_system": "human bronchial epithelial (16HBE) cells", "experiment": "alamarBlue cell viability assay, 16HBE", "conditions": "24-hour incubation, non-linear regression"}, "[4]": {"test_system": "human dermal fibroblast (HDF) cells", "experiment": "alamarBlue cell viability assay, HDF", "conditions": "HDFs, 24-hour incubation, non-linear regression"}, "[5]": {"test_system": "MRSA isolates", "experiment": "MIC/MBC, CLSI broth microdilution, MRSA isolates", "format": "cell-based, Staphylococcus aureus"}, "[6]": {"experiment": "pH and Ka of 10-g/L aqueous solutions (pH meter)", "format": "physicochemical", "conditions": "10-g/L solution in distilled, deionized water"}, "[7]": {"conditions": "Staphylococcus aureus, MRSA, pH 5.5, MRSA 0606, pH 5.5"}, "[8]": {"conditions": "Staphylococcus aureus, MRSA, pH 5.5, MRSA 0608, pH 5.5"}, "[9]": {"conditions": "Staphylococcus aureus, MRSA, pH 5.5, MRSA 0634, pH 5.5"}, "[10]": {"conditions": "Staphylococcus aureus, MRSA, pH 5.5, MRSA 0641, pH 5.5"}, "[11]": {"conditions": "Staphylococcus aureus, MRSA, pH 5.5, MRSA 0646, pH 5.5"}, "[12]": {"conditions": "Staphylococcus aureus, MRSA, pH 5.5, TCH 1516, pH 5.5"}, "[13]": {"conditions": "Staphylococcus aureus, MRSA, pH 6.5, MRSA 0606, pH 6.5"}, "[14]": {"conditions": "Staphylococcus aureus, MRSA, pH 6.5, MRSA 0608, pH 6.5"}, "[15]": {"conditions": "Staphylococcus aureus, MRSA, pH 6.5, MRSA 0634, pH 6.5"}, "[16]": {"conditions": "Staphylococcus aureus, MRSA, pH 6.5, MRSA 0641, pH 6.5"}, "[17]": {"conditions": "Staphylococcus aureus, MRSA, pH 6.5, MRSA 0646, pH 6.5"}, "[18]": {"conditions": "Staphylococcus aureus, MRSA, pH 6.5, TCH 1516, pH 6.5"}, "[19]": {"conditions": "Staphylococcus aureus, MRSA, pH 7.4, MRSA 0606, pH 7.4"}, "[20]": {"conditions": "Staphylococcus aureus, MRSA, pH 7.4, MRSA 0608, pH 7.4"}, "[21]": {"conditions": "Staphylococcus aureus, MRSA, pH 7.4, MRSA 0634, pH 7.4"}, "[22]": {"conditions": "Staphylococcus aureus, MRSA, pH 7.4, MRSA 0641, pH 7.4"}, "[23]": {"conditions": "Staphylococcus aureus, MRSA, pH 7.4, MRSA 0646, pH 7.4"}, "[24]": {"conditions": "Staphylococcus aureus, MRSA, pH 7.4, TCH 1516, pH 7.4"}}, "note": "Like-named read-outs stand apart in the source and are kept apart here.", "data": [{"smiles": "[Na+].[Na+].[O-]c1c(Cl)cc(Cl)cc1-c1cc(Cl)cc(Cl)c1[O-]", "note": "[C59Na]", "values": [{"measurement": "aqueous solubility", "setting": "[1]", "result": "moderate aqueous solubility"}, {"measurement": "concentrations at which erythrocytes were not lysed", "setting": "[2]; 1% sheep blood, 1-hour incubation", "result": "up to 24 µg/mL"}, {"measurement": "LD50 relative to MIC90", "setting": "[2]; higher than MIC90, stated in the hemolysis discussion, cell type not named", "result": 10, "unit": "fold"}, {"measurement": "LD50", "setting": "[3]", "result": 30.0, "unit": "µg/mL"}, {"measurement": "LD50", "setting": "[4]", "result": 57.5, "unit": "µg/mL"}, {"measurement": "MIC90", "setting": "[5]; Staphylococcus aureus, MRSA, 39 evaluated MRSA isolates, CLSI broth microdilution", "result": 4, "unit": "µg/mL"}, {"measurement": "MBC", "setting": "[5]; [7]", "result": 0.25, "unit": "µg/mL"}, {"measurement": "MIC", "setting": "[5]; [7]", "result": 0.25, "unit": "µg/mL"}, {"measurement": "MBC", "setting": "[5]; [8]", "result": 0.25, "unit": "µg/mL"}, {"measurement": "MIC", "setting": "[5]; [8]", "result": 0.25, "unit": "µg/mL"}, {"measurement": "MBC", "setting": "[5]; [9]", "result": 0.25, "unit": "µg/mL"}, {"measurement": "MIC", "setting": "[5]; [9]", "result": 0.25, "unit": "µg/mL"}, {"measurement": "MBC", "setting": "[5]; [10]", "result": 0.25, "unit": "µg/mL"}, {"measurement": "MIC", "setting": "[5]; [10]", "result": 0.25, "unit": "µg/mL"}, {"measurement": "MBC", "setting": "[5]; [11]", "result": 0.25, "unit": "µg/mL"}, {"measurement": "MIC", "setting": "[5]; [11]", "result": 0.25, "unit": "µg/mL"}, {"measurement": "MBC", "setting": "[5]; [12]", "result": 0.25, "unit": "µg/mL"}, {"measurement": "MIC", "setting": "[5]; [12]", "result": 0.25, "unit": "µg/mL"}, {"measurement": "MBC", "setting": "[5]; Staphylococcus aureus, MRSA, pH 5.5, read-out: Average MBC, average of six MRSA isolates, pH 5.5", "result": 0.25, "unit": "µg/mL"}, {"measurement": "MIC", "setting": "[5]; Staphylococcus aureus, MRSA, pH 5.5, read-out: Average MIC, average of six MRSA isolates, pH 5.5", "result": 0.25, "unit": "µg/mL"}, {"measurement": "MBC", "setting": "[5]; [13]", "result": 1, "unit": "µg/mL"}, {"measurement": "MIC", "setting": "[5]; [13]", "result": 0.5, "unit": "µg/mL"}, {"measurement": "MBC", "setting": "[5]; [14]", "result": 1, "unit": "µg/mL"}, {"measurement": "MIC", "setting": "[5]; [14]", "result": 1, "unit": "µg/mL"}, {"measurement": "MBC", "setting": "[5]; [15]", "result": 1, "unit": "µg/mL"}, {"measurement": "MIC", "setting": "[5]; [15]", "result": 1, "unit": "µg/mL"}, {"measurement": "MBC", "setting": "[5]; [16]", "result": 1, "unit": "µg/mL"}, {"measurement": "MIC", "setting": "[5]; [16]", "result": 0.5, "unit": "µg/mL"}, {"measurement": "MBC", "setting": "[5]; [17]", "result": 1, "unit": "µg/mL"}, {"measurement": "MIC", "setting": "[5]; [17]", "result": 0.5, "unit": "µg/mL"}, {"measurement": "MBC", "setting": "[5]; [18]", "result": 2, "unit": "µg/mL"}, {"measurement": "MIC", "setting": "[5]; [18]", "result": 1, "unit": "µg/mL"}, {"measurement": "MBC", "setting": "[5]; Staphylococcus aureus, MRSA, pH 6.5, read-out: Average MBC, average of six MRSA isolates, pH 6.5", "result": 1.2, "unit": "µg/mL"}, {"measurement": "MIC", "setting": "[5]; Staphylococcus aureus, MRSA, pH 6.5, read-out: Average MIC, average of six MRSA isolates, pH 6.5", "result": 0.75, "unit": "µg/mL"}, {"measurement": "MBC", "setting": "[5]; [19]", "result": 2, "unit": "µg/mL"}, {"measurement": "MIC", "setting": "[5]; [19]", "result": 2, "unit": "µg/mL"}, {"measurement": "MBC", "setting": "[5]; [20]", "result": 4, "unit": "µg/mL"}, {"measurement": "MIC", "setting": "[5]; [20]", "result": 2, "unit": "µg/mL"}, {"measurement": "MBC", "setting": "[5]; [21]", "result": 2, "unit": "µg/mL"}, {"measurement": "MIC", "setting": "[5]; [21]", "result": 2, "unit": "µg/mL"}, {"measurement": "MBC", "setting": "[5]; [22]", "result": 4, "unit": "µg/mL"}, {"measurement": "MIC", "setting": "[5]; [22]", "result": 2, "unit": "µg/mL"}, {"measurement": "MBC", "setting": "[5]; [23]", "result": 4, "unit": "µg/mL"}, {"measurement": "MIC", "setting": "[5]; [23]", "result": 1, "unit": "µg/mL"}, {"measurement": "MBC", "setting": "[5]; [24]", "result": 2, "unit": "µg/mL"}, {"measurement": "MIC", "setting": "[5]; [24]", "result": 2, "unit": "µg/mL"}, {"measurement": "MBC", "setting": "[5]; Staphylococcus aureus, MRSA, pH 7.4, read-out: Average MBC, average of six MRSA isolates, pH 7.4", "result": 3, "unit": "µg/mL"}, {"measurement": "MIC", "setting": "[5]; Staphylococcus aureus, MRSA, pH 7.4, read-out: Average MIC, average of six MRSA isolates, pH 7.4", "result": 1.8, "unit": "µg/mL"}, {"measurement": "MBC", "setting": "[5]; Staphylococcus aureus, MRSA, read-out: MBC90, 39 evaluated MRSA isolates, CLSI broth microdilution", "result": 12, "unit": "µg/mL"}, {"measurement": "change of MIC and MBC with the reduction in pH", "setting": "[5]; six MRSA isolates, pH lowered to 5.5", "result": "decreased"}, {"measurement": "acid dissociation constant (Ka)", "setting": "[6]", "result": "1.54 × 10^−16"}, {"measurement": "pH of solution", "setting": "[6]; room temperature", "result": 8.69}]}]}
